How the values were obtained:
[1] = biological target: T1, Hepatocyte nuclear factor 4-alpha (Homo sapiens) (UniProt P41235); assay: Selectivity interaction (Reporter gene assay) EUB0001081a HNF4A; design: recommended concentration 10 uM
T1 sequence (whole entry): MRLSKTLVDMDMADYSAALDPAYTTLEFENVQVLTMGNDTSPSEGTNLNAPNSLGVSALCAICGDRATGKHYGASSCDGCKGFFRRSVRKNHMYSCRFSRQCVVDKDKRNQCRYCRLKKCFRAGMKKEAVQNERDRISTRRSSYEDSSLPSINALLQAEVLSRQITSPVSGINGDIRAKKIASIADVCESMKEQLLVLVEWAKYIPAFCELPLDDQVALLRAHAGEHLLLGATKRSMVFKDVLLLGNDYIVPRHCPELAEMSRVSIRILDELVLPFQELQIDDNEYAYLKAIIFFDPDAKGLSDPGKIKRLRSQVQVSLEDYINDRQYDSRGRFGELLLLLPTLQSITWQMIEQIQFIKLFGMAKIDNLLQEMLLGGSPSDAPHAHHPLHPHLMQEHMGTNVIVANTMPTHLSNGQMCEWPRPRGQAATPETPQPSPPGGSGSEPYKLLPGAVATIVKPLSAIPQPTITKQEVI

[2] = biological target: T2, Nuclear receptor subfamily 2 group C member 1 (Homo sapiens) (UniProt P13056); assay: Selectivity interaction (Reporter gene assay) EUB0001081a NR2C1; design: recommended concentration 10 uM
T2 sequence (whole entry): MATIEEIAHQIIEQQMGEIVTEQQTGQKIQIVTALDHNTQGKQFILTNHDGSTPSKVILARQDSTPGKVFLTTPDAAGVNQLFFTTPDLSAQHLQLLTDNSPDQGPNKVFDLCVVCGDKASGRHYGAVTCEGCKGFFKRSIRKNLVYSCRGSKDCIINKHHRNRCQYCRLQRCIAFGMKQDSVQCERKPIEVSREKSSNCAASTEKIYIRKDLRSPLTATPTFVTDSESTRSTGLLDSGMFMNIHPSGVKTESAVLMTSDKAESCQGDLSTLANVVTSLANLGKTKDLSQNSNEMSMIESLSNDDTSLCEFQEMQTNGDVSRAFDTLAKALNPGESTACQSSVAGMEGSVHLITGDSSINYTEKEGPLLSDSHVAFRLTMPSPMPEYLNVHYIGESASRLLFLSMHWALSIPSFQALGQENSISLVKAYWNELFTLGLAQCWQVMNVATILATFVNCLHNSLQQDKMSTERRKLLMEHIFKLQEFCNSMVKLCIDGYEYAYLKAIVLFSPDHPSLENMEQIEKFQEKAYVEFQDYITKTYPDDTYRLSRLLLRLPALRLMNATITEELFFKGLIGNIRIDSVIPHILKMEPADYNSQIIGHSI

[3] = biological target: Steroidogenic factor 1 (Homo sapiens) (UniProt Q13285); assay: Selectivity interaction (Reporter gene assay) EUB0001081a NR5A1; design: recommended concentration 10 uM
Sequence of Steroidogenic factor 1 (Homo sapiens) (Q13285 whole entry): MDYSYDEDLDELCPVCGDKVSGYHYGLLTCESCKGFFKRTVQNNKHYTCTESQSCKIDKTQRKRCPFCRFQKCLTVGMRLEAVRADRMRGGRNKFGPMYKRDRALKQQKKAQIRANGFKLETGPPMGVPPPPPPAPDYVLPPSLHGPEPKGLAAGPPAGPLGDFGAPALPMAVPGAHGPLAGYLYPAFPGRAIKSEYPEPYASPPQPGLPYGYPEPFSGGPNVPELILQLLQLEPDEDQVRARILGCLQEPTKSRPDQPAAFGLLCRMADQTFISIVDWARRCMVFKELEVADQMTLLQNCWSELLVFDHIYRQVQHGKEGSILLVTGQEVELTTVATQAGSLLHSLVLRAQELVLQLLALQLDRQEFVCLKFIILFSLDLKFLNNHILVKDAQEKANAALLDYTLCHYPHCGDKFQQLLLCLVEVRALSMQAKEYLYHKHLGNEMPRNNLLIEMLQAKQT

[4] = biological target: Nuclear receptor subfamily 4immunitygroup A member 1 (Homo sapiens) (UniProt P22736); assay: Selectivity interaction (Reporter gene assay) EUB0001081a NR4A1; design: recommended concentration 10 uM
Sequence of Nuclear receptor subfamily 4immunitygroup A member 1 (Homo sapiens) (P22736 whole entry): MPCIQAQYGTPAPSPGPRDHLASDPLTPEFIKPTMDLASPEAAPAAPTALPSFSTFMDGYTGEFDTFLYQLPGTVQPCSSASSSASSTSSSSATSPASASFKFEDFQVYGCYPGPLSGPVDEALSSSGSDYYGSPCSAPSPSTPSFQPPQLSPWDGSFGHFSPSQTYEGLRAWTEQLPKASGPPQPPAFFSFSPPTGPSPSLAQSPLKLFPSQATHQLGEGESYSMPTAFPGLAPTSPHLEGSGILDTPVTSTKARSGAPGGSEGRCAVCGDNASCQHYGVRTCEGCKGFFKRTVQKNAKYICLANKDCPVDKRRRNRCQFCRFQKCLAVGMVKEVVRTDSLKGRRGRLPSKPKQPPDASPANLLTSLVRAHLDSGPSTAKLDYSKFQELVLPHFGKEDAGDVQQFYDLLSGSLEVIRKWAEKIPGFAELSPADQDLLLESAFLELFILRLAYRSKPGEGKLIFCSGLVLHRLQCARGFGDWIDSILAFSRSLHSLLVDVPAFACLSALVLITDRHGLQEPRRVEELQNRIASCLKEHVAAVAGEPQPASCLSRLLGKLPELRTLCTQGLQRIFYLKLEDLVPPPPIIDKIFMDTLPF

[5] = biological target: Nuclear receptor subfamily 2 group E member 1 (Homo sapiens) (UniProt Q9Y466); assay: Selectivity interaction (Reporter gene assay) EUB0001081a NR2E1; design: recommended concentration 10 uM
Sequence of Nuclear receptor subfamily 2 group E member 1 (Homo sapiens) (Q9Y466 whole entry): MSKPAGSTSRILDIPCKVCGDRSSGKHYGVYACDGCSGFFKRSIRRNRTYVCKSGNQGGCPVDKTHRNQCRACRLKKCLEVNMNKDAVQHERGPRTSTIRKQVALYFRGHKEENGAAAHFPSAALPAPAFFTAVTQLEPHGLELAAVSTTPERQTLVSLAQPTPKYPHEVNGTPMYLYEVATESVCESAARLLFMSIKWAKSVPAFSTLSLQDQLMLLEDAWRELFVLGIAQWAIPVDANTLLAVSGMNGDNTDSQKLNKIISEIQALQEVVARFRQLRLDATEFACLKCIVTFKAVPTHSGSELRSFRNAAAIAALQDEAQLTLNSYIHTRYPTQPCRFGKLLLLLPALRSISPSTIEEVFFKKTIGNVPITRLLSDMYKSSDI

[6] = biological target: T3, Retinoic acid receptor RXR-alpha (Homo sapiens) (UniProt P19793); assay: Selectivity interaction (Reporter gene assay) EUB0001081a RXRA; design: recommended concentration 10 uM; details: reference bexarotene 1 uM, Selectivity number of off-targets 0.0, Selectivity number of targets 1.0, Source Knowledge inhouse
T3 sequence (whole entry): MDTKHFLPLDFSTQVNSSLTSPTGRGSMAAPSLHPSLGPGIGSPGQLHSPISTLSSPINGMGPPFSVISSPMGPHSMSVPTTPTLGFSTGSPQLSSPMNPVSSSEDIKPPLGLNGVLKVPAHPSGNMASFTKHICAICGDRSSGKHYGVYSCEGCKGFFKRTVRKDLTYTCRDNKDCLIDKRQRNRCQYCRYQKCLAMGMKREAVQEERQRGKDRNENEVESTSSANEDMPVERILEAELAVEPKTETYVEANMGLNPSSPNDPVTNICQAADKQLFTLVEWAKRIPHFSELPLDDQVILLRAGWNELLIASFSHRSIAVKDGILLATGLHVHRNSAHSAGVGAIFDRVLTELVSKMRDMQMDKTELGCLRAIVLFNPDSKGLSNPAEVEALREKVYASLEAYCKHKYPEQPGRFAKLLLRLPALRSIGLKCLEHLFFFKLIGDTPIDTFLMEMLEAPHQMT

[7] = biological target: T4, Alpha trans-inducing protein (Human alphaherpesvirus 1) (UniProt A0A5J6DW59); assay: Selectivity interaction (Reporter gene assay) EUB0001081a UL48; design: recommended concentration 10 uM
T4 sequence (A0A5J6DW59 as listed by the source): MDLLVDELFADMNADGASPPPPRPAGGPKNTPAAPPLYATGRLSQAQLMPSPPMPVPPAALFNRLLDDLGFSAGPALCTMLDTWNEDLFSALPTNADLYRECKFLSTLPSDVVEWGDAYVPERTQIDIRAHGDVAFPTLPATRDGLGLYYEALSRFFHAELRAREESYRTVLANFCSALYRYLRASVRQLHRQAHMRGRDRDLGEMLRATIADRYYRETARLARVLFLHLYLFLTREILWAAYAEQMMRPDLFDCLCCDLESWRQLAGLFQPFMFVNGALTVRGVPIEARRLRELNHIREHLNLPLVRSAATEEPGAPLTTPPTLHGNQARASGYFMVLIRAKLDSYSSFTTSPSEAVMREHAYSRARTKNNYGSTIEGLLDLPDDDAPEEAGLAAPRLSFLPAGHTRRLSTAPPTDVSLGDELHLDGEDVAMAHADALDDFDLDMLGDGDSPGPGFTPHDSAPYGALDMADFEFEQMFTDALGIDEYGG

[8] = biological target: T1, Hepatocyte nuclear factor 4-alpha (Homo sapiens); assay: Selectivity interaction (Reporter gene assay) EUB0001136a HNF4A; design: recommended concentration 1 uM
[9] = biological target: Steroidogenic factor 1 (Homo sapiens) (UniProt Q13285); assay: Selectivity interaction (Reporter gene assay) EUB0001136a NR5A1; design: recommended concentration 1 uM; details: screened at recom. conc., Selectivity number of off-targets 2.0, Selectivity number of targets 5.0, Source Knowledge inhouse
[10] = biological target: Nuclear receptor ROR-gamma (Homo sapiens) (UniProt P51449); assay: Selectivity interaction (Reporter gene assay) EUB0001136a RORC; design: recommended concentration 1 uM; details: screened at recom. conc., Selectivity number of off-targets 3.0, Selectivity number of targets 19.0, Source Knowledge inhouse
Sequence of Nuclear receptor ROR-gamma (Homo sapiens) (P51449 whole entry): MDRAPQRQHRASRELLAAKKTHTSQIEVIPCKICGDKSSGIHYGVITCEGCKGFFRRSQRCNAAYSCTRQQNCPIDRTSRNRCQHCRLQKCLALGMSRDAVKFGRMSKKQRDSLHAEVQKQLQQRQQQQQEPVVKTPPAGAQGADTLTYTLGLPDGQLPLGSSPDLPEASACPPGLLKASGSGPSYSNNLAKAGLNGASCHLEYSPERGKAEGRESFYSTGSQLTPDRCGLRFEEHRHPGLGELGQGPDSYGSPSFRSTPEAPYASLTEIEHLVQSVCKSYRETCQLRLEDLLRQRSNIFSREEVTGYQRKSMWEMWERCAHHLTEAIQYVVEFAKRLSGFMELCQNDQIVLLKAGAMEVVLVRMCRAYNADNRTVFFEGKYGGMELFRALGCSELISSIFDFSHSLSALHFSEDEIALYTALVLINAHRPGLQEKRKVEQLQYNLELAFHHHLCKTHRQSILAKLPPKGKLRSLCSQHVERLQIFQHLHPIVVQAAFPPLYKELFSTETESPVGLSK

[11] = biological target: Nuclear receptor subfamily 4immunitygroup A member 1 (Homo sapiens) (UniProt P22736); assay: Selectivity interaction (Reporter gene assay) EUB0001136a NR4A1; design: recommended concentration 1 uM
[12] = biological target: T4, Alpha trans-inducing protein (Human alphaherpesvirus 1); assay: Selectivity interaction (Reporter gene assay) EUB0001136a UL48; design: recommended concentration 1 uM
[13] = biological target: T2, Nuclear receptor subfamily 2 group C member 1 (Homo sapiens); assay: Selectivity interaction (Reporter gene assay) EUB0001136a NR2C1; design: recommended concentration 1 uM
[14] = biological target: Nuclear receptor ROR-alpha (Homo sapiens) (UniProt P35398); assay: Selectivity interaction (Reporter gene assay) EUB0001136a RORA; design: recommended concentration 1 uM; details: screened at recom. conc., Selectivity number of off-targets 3.0, Selectivity number of targets 19.0, Source Knowledge inhouse
Sequence of Nuclear receptor ROR-alpha (Homo sapiens) (P35398 whole entry): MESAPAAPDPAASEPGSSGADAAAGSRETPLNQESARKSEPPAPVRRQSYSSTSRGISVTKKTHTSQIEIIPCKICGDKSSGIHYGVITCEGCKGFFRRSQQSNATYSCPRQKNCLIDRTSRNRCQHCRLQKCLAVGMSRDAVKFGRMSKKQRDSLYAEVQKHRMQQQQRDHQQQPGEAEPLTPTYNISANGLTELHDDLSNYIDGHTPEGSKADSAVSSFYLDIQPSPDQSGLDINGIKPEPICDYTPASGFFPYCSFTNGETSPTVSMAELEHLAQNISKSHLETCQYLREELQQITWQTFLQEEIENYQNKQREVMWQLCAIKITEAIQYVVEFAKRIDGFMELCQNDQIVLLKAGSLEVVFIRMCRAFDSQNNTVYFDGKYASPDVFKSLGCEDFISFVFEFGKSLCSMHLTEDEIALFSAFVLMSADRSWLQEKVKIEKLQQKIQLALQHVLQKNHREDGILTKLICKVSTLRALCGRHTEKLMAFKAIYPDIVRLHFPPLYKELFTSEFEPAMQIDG

[15] = biological target: Nuclear receptor ROR-beta (Homo sapiens) (UniProt Q92753); assay: Selectivity interaction (Reporter gene assay) EUB0001136a RORB; design: recommended concentration 1 uM; details: screened at recom. conc., Selectivity number of off-targets 3.0, Selectivity number of targets 19.0, Source Knowledge inhouse
Sequence of Nuclear receptor ROR-beta (Homo sapiens) (Q92753 whole entry): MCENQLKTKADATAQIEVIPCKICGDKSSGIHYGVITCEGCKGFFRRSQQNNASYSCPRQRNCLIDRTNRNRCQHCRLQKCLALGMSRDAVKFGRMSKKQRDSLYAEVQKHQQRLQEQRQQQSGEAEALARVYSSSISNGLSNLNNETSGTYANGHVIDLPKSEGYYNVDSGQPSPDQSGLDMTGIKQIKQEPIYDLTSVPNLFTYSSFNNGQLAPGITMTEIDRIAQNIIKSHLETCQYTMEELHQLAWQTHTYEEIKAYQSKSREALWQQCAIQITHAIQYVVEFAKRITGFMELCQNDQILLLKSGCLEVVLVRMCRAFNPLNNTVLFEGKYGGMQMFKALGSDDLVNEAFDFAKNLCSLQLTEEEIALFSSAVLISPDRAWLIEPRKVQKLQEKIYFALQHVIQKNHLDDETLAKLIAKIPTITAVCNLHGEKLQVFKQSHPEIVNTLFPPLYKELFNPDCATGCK

[16] = biological target: Nuclear receptor subfamily 2 group E member 1 (Homo sapiens) (UniProt Q9Y466); assay: Selectivity interaction (Reporter gene assay) EUB0001136a NR2E1; design: recommended concentration 1 uM; details: screened at recom. conc., Selectivity number of off-targets 2.0, Selectivity number of targets 5.0, Source Knowledge inhouse
[17] = biological target: T4, Alpha trans-inducing protein (Human alphaherpesvirus 1); assay: Selectivity interaction (Reporter gene assay) EUB0001143a UL48; design: recommended concentration 1 uM
[18] = biological target: Nuclear receptor subfamily 2 group E member 1 (Homo sapiens) (UniProt Q9Y466); assay: Selectivity interaction (Reporter gene assay) EUB0001143a NR2E1; design: recommended concentration 1 uM
[19] = biological target: Steroidogenic factor 1 (Homo sapiens) (UniProt Q13285); assay: Selectivity interaction (Reporter gene assay) EUB0001143a NR5A1; design: recommended concentration 1 uM
[20] = biological target: T3, Retinoic acid receptor RXR-alpha (Homo sapiens); assay: Selectivity interaction (Reporter gene assay) EUB0001143a RXRA; design: recommended concentration 1 uM; details: reference bexarotene 1 uM, Selectivity number of off-targets 0.0, Selectivity number of targets 1.0, Source Knowledge inhouse
[21] = biological target: T1, Hepatocyte nuclear factor 4-alpha (Homo sapiens); assay: Selectivity interaction (Reporter gene assay) EUB0001143a HNF4A; design: recommended concentration 1 uM
[22] = biological target: Nuclear receptor subfamily 4immunitygroup A member 1 (Homo sapiens) (UniProt P22736); assay: Selectivity interaction (Reporter gene assay) EUB0001143a NR4A1; design: recommended concentration 1 uM
[23] = biological target: T2, Nuclear receptor subfamily 2 group C member 1 (Homo sapiens); assay: Selectivity interaction (Reporter gene assay) EUB0001143a NR2C1; design: recommended concentration 1 uM
[24] = biological target: T1, Hepatocyte nuclear factor 4-alpha (Homo sapiens); assay: Selectivity interaction (Reporter gene assay) EUB0000835a HNF4A; design: recommended concentration 1 uM
[25] = biological target: T2, Nuclear receptor subfamily 2 group C member 1 (Homo sapiens); assay: Selectivity interaction (Reporter gene assay) EUB0000835a NR2C1; design: recommended concentration 1 uM
[26] = biological target: T3, Retinoic acid receptor RXR-alpha (Homo sapiens); assay: Selectivity interaction (Reporter gene assay) EUB0000835a RXRA; design: recommended concentration 1 uM; details: screened at recom. conc., reference bexarotene 1 uM, Selectivity number of off-targets 1.0, Selectivity number of targets 1.0, Source Knowledge inhouse
[27] = biological target: Nuclear receptor subfamily 4immunitygroup A member 1 (Homo sapiens) (UniProt P22736); assay: Selectivity interaction (Reporter gene assay) EUB0000835a NR4A1; design: recommended concentration 1 uM
[28] = biological target: Nuclear receptor subfamily 2 group E member 1 (Homo sapiens) (UniProt Q9Y466); assay: Selectivity interaction (Reporter gene assay) EUB0000835a NR2E1; design: recommended concentration 1 uM
[29] = biological target: Steroidogenic factor 1 (Homo sapiens) (UniProt Q13285); assay: Selectivity interaction (Reporter gene assay) EUB0000835a NR5A1; design: recommended concentration 1 uM
[30] = biological target: T4, Alpha trans-inducing protein (Human alphaherpesvirus 1); assay: Selectivity interaction (Reporter gene assay) EUB0000835a UL48; design: recommended concentration 1 uM
[31] = biological target: T2, Nuclear receptor subfamily 2 group C member 1 (Homo sapiens); assay: Selectivity interaction (Reporter gene assay) EUB0001142a NR2C1; design: recommended concentration 1 uM
[32] = biological target: Nuclear receptor subfamily 2 group E member 1 (Homo sapiens) (UniProt Q9Y466); assay: Selectivity interaction (Reporter gene assay) EUB0001142a NR2E1; design: recommended concentration 1 uM
[33] = biological target: T1, Hepatocyte nuclear factor 4-alpha (Homo sapiens); assay: Selectivity interaction (Reporter gene assay) EUB0001142a HNF4A; design: recommended concentration 1 uM
[34] = biological target: Nuclear receptor subfamily 4immunitygroup A member 1 (Homo sapiens) (UniProt P22736); assay: Selectivity interaction (Reporter gene assay) EUB0001142a NR4A1; design: recommended concentration 1 uM
[35] = biological target: Steroidogenic factor 1 (Homo sapiens) (UniProt Q13285); assay: Selectivity interaction (Reporter gene assay) EUB0001142a NR5A1; design: recommended concentration 1 uM
[36] = biological target: T4, Alpha trans-inducing protein (Human alphaherpesvirus 1); assay: Selectivity interaction (Reporter gene assay) EUB0001142a UL48; design: recommended concentration 1 uM

CC(C)c1cc(Oc2c(Cl)cc(-n3nc(C#N)c(=O)[nH]c3=O)cc2Cl)n[nH]c1=O
Remaining activity [1]: 0.559 | Remaining activity [2]: 0.569 | Remaining activity [3]: 0.559 | Remaining activity [4]: 0.741 | Remaining activity [5]: 0.788 | Relative activation [6]: 1.67% | P-value [7]: 0.0087

CC(C=CC1=C(C)CCCC1(C)C)=CC=CC(C)=CC(=O)O
Remaining activity [8]: 0.532 | Remaining activity [9]: 0.42 | Remaining activity [10]: 0.461 | Remaining activity [11]: 0.986 | P-value [12]: 0.000127 | Remaining activity [13]: 0.503 | Remaining activity [14]: 0.56 | Remaining activity [15]: 0.531 | Remaining activity [16]: 0.42

COc1cc2c(cc1CC=C(C)C)C(=O)C[C@@H](c1ccc(O)cc1)O2
P-value [17]: 3.16e-05 | Remaining activity [18]: 0.683 | Remaining activity [19]: 0.857 | Relative activation [20]: 0.529% | Remaining activity [21]: 0.853 | Remaining activity [22]: 0.758 | Remaining activity [23]: 0.85

C[C@H]1[C@H]2CC[C@H]3[C@@H]4CC=C5C[C@@H](N(C)C)CC[C@]5(C)[C@H]4CC[C@]23CN1C
Fold activation [24]: 1.09 | Remaining activity [25]: 0.83 | Relative activation [26]: 19.4% | Remaining activity [27]: 0.964 | Remaining activity [28]: 0.746 | Remaining activity [29]: 0.758 | P-value [30]: 0.00302

CCCCCCCN(CCc1ccc(SC(C)(C)C(=O)O)cc1)C(=O)Nc1ccc(F)cc1F
Fold activation [31]: 1.16 | Remaining activity [32]: 0.821 | Fold activation [33]: 1 | Fold activation [34]: 1 | Fold activation [35]: 1 | P-value [36]: 0.0039
